Reference: patent US9676701B2, “Cyclopropylamine derivatives useful as LSD1 inhibitors” (Oryzon Genomics, S.A., priority 2010, dated 2017)
pKi: −log10 of the molar value. Counter-ions that a name gives are not always drawn. Values belong to the compound of their own block, whether it stands above or below them.

Experiments:
MAO-A = MAO-A (Homo sapiens (Human), UniProt P21397); settings: read-out: MAO-A (Ki)
MAO-B = MAO-B (Homo sapiens (Human), UniProt P27338); settings: read-out: MAO-B (Ki)
[1] = molecular target: Human recombinant LSD1 protein (Homo sapiens (Human), UniProt O60341); assay: biochemical

MAO-A, sequence (P21397 whole entry): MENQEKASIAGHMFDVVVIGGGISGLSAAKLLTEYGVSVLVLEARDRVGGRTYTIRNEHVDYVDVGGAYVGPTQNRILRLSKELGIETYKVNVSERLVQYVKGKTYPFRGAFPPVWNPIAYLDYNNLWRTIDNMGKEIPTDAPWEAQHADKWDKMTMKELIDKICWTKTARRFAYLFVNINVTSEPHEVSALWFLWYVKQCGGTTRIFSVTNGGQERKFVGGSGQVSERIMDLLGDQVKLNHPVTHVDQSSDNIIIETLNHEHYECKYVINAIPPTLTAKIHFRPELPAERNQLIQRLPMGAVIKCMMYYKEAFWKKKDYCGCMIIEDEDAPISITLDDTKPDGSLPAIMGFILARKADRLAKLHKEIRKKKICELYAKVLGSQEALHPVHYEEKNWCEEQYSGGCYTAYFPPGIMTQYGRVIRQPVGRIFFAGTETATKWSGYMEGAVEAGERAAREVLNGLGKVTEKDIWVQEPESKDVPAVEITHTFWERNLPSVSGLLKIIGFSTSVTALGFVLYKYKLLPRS
MAO-B, sequence (P27338 whole entry): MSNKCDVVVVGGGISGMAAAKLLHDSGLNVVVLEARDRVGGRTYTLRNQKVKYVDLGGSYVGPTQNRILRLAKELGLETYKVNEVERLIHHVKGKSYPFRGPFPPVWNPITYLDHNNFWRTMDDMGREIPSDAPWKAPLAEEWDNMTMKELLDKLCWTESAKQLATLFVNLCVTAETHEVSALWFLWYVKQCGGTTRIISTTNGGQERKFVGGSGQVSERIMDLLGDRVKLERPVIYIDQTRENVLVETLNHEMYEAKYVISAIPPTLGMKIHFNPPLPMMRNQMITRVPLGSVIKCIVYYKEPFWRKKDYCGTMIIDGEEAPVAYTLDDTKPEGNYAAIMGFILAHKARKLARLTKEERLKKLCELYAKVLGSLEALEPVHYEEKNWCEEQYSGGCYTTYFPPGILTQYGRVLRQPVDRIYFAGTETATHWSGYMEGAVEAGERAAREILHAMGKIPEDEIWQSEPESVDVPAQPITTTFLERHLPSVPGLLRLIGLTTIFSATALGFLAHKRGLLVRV

Compound: N[C@H]1C[C@@H]1c1ccc(-c2cccc(O)c2)cc1 (relative stereo) [Example 4, 4′-((trans)-2-aminocyclopropyl)biphenyl-3-ol hydrochloride]
pKi (MAO-A): 4.40 to 6.00 | pKi (MAO-B): 4.40 to 6.00 | pKi [1]: 7.00 to 9.00

Compound: N[C@H]1C[C@@H]1c1ccc(-c2ccc3sccc3c2)nc1 (relative stereo) [Example 34, (trans)-2-(6-(benzo[b]thiophen-5-yl)pyridin-3-yl)cyclopropanamine hydrochloride]
pKi (MAO-A): 4.40 to 6.00 | pKi (MAO-B): 4.40 to 6.00 | pKi [1]: 6.00 to 7.00

Compound: COc1cc(-c2ccc([C@H]3C[C@@H]3N)cn2)ccc1F (relative stereo) [Example 38, (trans)-2-(6-(4-fluoro-3-methoxyphenyl)pyridin-3-yl)cyclopropanamine hydrochloride]
pKi (MAO-A): 4.40 to 6.00 | pKi (MAO-B): 4.40 to 6.00 | pKi [1]: 6.00 to 7.00

Compound: COc1cc(F)cc(-c2ccc([C@H]3C[C@@H]3N)cn2)c1 (relative stereo) [Example 39, (trans)-2-(6-(3-fluoro-5-methoxyphenyl)pyridin-3-yl)cyclopropanamine hydrochloride]
pKi (MAO-A): 4.40 to 6.00 | pKi (MAO-B): 4.40 to 6.00 | pKi [1]: 6.00 to 7.00

Compound: COc1ccc(F)c(-c2ccc([C@H]3C[C@@H]3N)cn2)c1 (relative stereo) [Example 40, (trans)-2-(6-(2-fluoro-5-methoxyphenyl)pyridin-3-yl)cyclopropanamine hydrochloride]
pKi (MAO-A): 4.40 to 6.00 | pKi (MAO-B): 4.40 to 6.00 | pKi [1]: 6.00 to 7.00

Compound: COc1cccc(-c2ccc([C@H]3C[C@@H]3N)cn2)c1F (relative stereo) [Example 41, (trans)-2-(6-(2-fluoro-3-methoxyphenyl)pyridin-3-yl)cyclopropanamine hydrochloride]
pKi (MAO-A): 4.40 to 6.00 | pKi (MAO-B): 4.40 to 6.00 | pKi [1]: 6.00 to 7.00

Compound: COc1ccc(Cl)c(-c2ccc([C@H]3C[C@@H]3N)cn2)c1 (relative stereo) [Example 43, (trans)-2-(6-(2-chloro-5-methoxyphenyl)pyridin-3-yl)cyclopropanamine hydrochloride]
pKi (MAO-A): 4.40 to 6.00 | pKi (MAO-B): 4.40 to 6.00 | pKi [1]: 6.00 to 7.00

Compound: N[C@H]1C[C@@H]1c1ccc(-c2cc(O)ccc2Cl)nc1 (relative stereo) [Example 47, 3-(5-((trans)-2-aminocyclopropyl)pyridin-2-yl)-4-chlorophenol hydrochloride]
pKi (MAO-A): 4.40 to 6.00 | pKi (MAO-B): 4.40 to 6.00 | pKi [1]: 6.00 to 7.00

Compound: N[C@H]1C[C@@H]1c1ccc(-c2cc(C(F)(F)F)ccc2F)nc1 (relative stereo) [Example 49, (trans)-2-(6-(2-fluoro-5-(trifluoromethyl)phenyl)pyridin-3-yl)cyclopropanamine hydrochloride]
pKi (MAO-A): 4.40 to 6.00 | pKi (MAO-B): 4.40 to 6.00 | pKi [1]: 6.00 to 7.00

Compound: N[C@H]1C[C@@H]1c1ccc(-c2cc(C(F)(F)F)ccc2Cl)nc1 (relative stereo) [Example 50, (trans)-2-(6-(2-chloro-5-(trifluoromethyl)phenyl)pyridin-3-yl)cyclopropanamine hydrochloride]
pKi (MAO-A): 4.40 to 6.00 | pKi (MAO-B): 4.40 to 6.00 | pKi [1]: 6.00 to 7.00

Compound: CC(=O)Nc1cccc(-c2ccc([C@H]3C[C@@H]3N)cn2)c1 (relative stereo) [Example 52, N-(3-(5-((trans)-2-aminocyclopropyl)pyridin-2-yl)phenyl)acetamide hydrochloride]
pKi (MAO-A): 4.40 to 6.00 | pKi (MAO-B): 4.40 to 6.00 | pKi [1]: 6.00 to 7.00

Compound: N[C@H]1C[C@@H]1c1ccc(-c2cc3ccccc3s2)nc1 (relative stereo) [Example 54, (trans)-2-(6-(benzo[b]thiophen-2-yl)pyridin-3-yl)cyclopropanamine hydrochloride]
pKi (MAO-A): 4.40 to 6.00 | pKi (MAO-B): 4.40 to 6.00 | pKi [1]: 6.00 to 7.00

Compound: N[C@H]1C[C@@H]1c1ccc(-c2csc3ccccc23)nc1 (relative stereo) [Example 55, (trans)-2-(6-(benzo[b]thiophen-3-yl)pyridin-3-yl)cyclopropanamine hydrochloride]
pKi (MAO-A): 4.40 to 6.00 | pKi (MAO-B): 4.40 to 6.00 | pKi [1]: 6.00 to 7.00

Compound: N[C@H]1C[C@@H]1c1ccc(-c2cccc(NS(=O)(=O)C(F)(F)F)c2)cc1 (relative stereo) [Example 103, N-(4′-((trans)-2-aminocyclopropyl)-[1,1′-biphenyl]-3-yl)-1,1,1-trifluoromethanesulfonamide hydrochloride]
pKi [1]: 6.00 to 7.00

Other lines, results leading:

pKi (MAO-A): 4.40 to 6.00 | pKi (MAO-B): 4.40 to 6.00 | pKi [1]: 6.00 to 7.00
Compound: N[C@H]1C[C@@H]1c1ccc(-c2cccc(C(F)(F)F)c2)cc1 (relative stereo) [Example 1, (trans)-2-(3′-(trifluoromethyl)biphenyl-4-yl)cyclopropanamine hydrochloride]

pKi (MAO-A): 4.40 to 6.00 | pKi (MAO-B): 4.40 to 6.00 | pKi [1]: 6.00 to 7.00
Compound: N[C@H]1C[C@@H]1c1ccc(-c2ccc(O)cc2)cc1 (relative stereo) [Example 3, 4′-((trans)-2-aminocyclopropyl)biphenyl-4-ol hydrochloride]

pKi (MAO-A): 4.40 to 6.00 | pKi (MAO-B): 4.40 to 6.00 | pKi [1]: 6.00 to 7.00
Compound: N#Cc1ccc(-c2ccc([C@H]3C[C@@H]3N)cn2)cc1 (relative stereo) [Example 12, 4-(5-((trans)-2-aminocyclopropyl)pyridin-2-yl)benzonitrile dihydrochloride]

pKi (MAO-A): 4.40 to 6.00 | pKi (MAO-B): 4.40 to 6.00 | pKi [1]: 7.00 to 9.00
Compound: N#Cc1cccc(-c2ccc([C@H]3C[C@@H]3N)cn2)c1 (relative stereo) [Example 13, 3-(5-((trans)-2-aminocyclopropyl)pyridin-2-yl)benzonitrile hydrochloride]

pKi (MAO-A): 4.40 to 6.00 | pKi (MAO-B): 4.40 to 6.00 | pKi [1]: 6.00 to 7.00
Compound: Cc1cccc(-c2ccc([C@H]3C[C@@H]3N)cn2)c1 (relative stereo) [Example 15, (Trans)-2-(6-m-tolylpyridin-3-yl)cyclopropanamine hydrochloride]

pKi (MAO-A): 4.40 to 6.00 | pKi (MAO-B): 4.40 to 6.00 | pKi [1]: 6.00 to 7.00
Compound: N[C@H]1C[C@@H]1c1ccc(-c2ccc(O)cc2)nc1 (relative stereo) [Example 16, 4-(5-((trans)-2-aminocyclopropyl)pyridin-2-yl)phenol hydrochloride]

pKi (MAO-A): 4.40 to 6.00 | pKi (MAO-B): 4.40 to 6.00 | pKi [1]: 6.00 to 7.00
Compound: NC(=O)c1cccc(-c2ccc([C@H]3C[C@@H]3N)cn2)c1 (relative stereo) [Example 19, 3-(5-((trans)-2-aminocyclopropyl)pyridin-2-yl)benzamide hydrochloride]

pKi (MAO-A): 4.40 to 6.00 | pKi (MAO-B): 4.40 to 6.00 | pKi [1]: 7.00 to 9.00
Compound: N[C@H]1C[C@@H]1c1ccc(-c2ccc(F)c(O)c2)nc1 (relative stereo) [Example 23, 5-(5-((trans)-2-aminocyclopropyl)pyridin-2-yl)-2-fluorophenol hydrochloride]

pKi (MAO-A): 4.40 to 6.00 | pKi (MAO-B): 4.40 to 6.00 | pKi [1]: 7.00 to 9.00
Compound: N[C@H]1C[C@@H]1c1ccc(-c2cc(O)cc(F)c2)nc1 (relative stereo) [Example 24, 3-(5-((trans)-2-aminocyclopropyl)pyridin-2-yl)-5-fluorophenol hydrochloride]

pKi (MAO-A): 4.40 to 6.00 | pKi (MAO-B): 4.40 to 6.00 | pKi [1]: 7.00 to 9.00
Compound: N[C@H]1C[C@@H]1c1ccc(-c2cc(O)ccc2F)nc1 (relative stereo) [Example 25, 3-(5-((trans)-2-aminocyclopropyl)pyridin-2-yl)-4-fluorophenol hydrochloride]

pKi (MAO-A): 4.40 to 6.00 | pKi (MAO-B): 4.40 to 6.00 | pKi [1]: 6.00 to 7.00
Compound: N[C@H]1C[C@@H]1c1ccc(-c2cccc(O)c2F)nc1 (relative stereo) [Example 26, 3-(5-((trans)-2-aminocyclopropyl)pyridin-2-yl)-2-fluorophenol hydrochloride]

pKi (MAO-A): 4.40 to 6.00 | pKi (MAO-B): 4.40 to 6.00 | pKi [1]: 7.00 to 9.00
Compound: N[C@H]1C[C@@H]1c1ccc(-c2cc(O)cc(Cl)c2)nc1 (relative stereo) [Example 29, 3-(5-((trans)-2-aminocyclopropyl)pyridin-2-yl)-5-chlorophenol hydrochloride]

pKi (MAO-A): 4.40 to 6.00 | pKi (MAO-B): 4.40 to 6.00 | pKi [1]: 6.00 to 7.00
Compound: N[C@H]1C[C@@H]1c1ccc(-c2cccc(C(F)(F)F)c2F)nc1 (relative stereo) [Example 30, (trans)-2-(6-(2-fluoro-3-(trifluoromethyl)phenyl)pyridin-3-yl)cyclopropanamine hydrochloride]

pKi (MAO-A): 4.40 to 6.00 | pKi (MAO-B): 4.40 to 6.00 | pKi [1]: 7.00 to 9.00
Compound: N[C@H]1C[C@@H]1c1ccc(-c2ccc(Cl)s2)nc1 (relative stereo) [Example 31, (trans)-2-(6-(5-chlorothiophen-2-yl)pyridin-3-yl)cyclopropanamine hydrochloride]

pKi (MAO-A): 4.40 to 6.00 | pKi (MAO-B): 4.40 to 6.00 | pKi [1]: 7.00 to 9.00
Compound: Cc1ccc(-c2ccc([C@H]3C[C@@H]3N)cn2)cc1O (relative stereo) [Example 46, 5-(5-((trans)-2-aminocyclopropyl)pyridin-2-yl)-2-methylphenol hydrochloride]

pKi (MAO-B): 4.40 to 6.00 | pKi [1]: 7.00 to 9.00
Compound: N[C@H]1C[C@@H]1c1ccc(-c2cc(O)c(F)c(F)c2)nc1 (relative stereo) [Example 59, 5-(5-((trans)-2-aminocyclopropyl)pyridin-2-yl)-2,3-difluorophenol hydrochloride]

pKi [1]: 7.00 to 9.00
Compound: N[C@H]1C[C@@H]1c1ccc(-c2ccc(F)c(O)c2)cc1 (relative stereo) [Example 66, 4′-((trans)-2-aminocyclopropyl)-4-fluorobiphenyl-3-ol hydrochloride]

pKi [1]: 7.00 to 9.00
Compound: N[C@H]1C[C@@H]1c1ccc(-c2cc(O)cc(Cl)c2)cc1 (relative stereo) [Example 67, 4′-((trans)-2-aminocyclopropyl)-5-chlorobiphenyl-3-ol hydrochloride]

pKi [1]: 7.00 to 9.00
Compound: N[C@H]1C[C@@H]1c1ccc(-c2cccc(NS(=O)(=O)c3ccccc3)c2)cc1 (relative stereo) [Example 68, N-(4′-((trans)-2-aminocyclopropyl)biphenyl-3-yl)benzenesulfonamide hydrochloride]

pKi [1]: 7.00 to 9.00
Compound: CC(C)S(=O)(=O)Nc1cccc(-c2ccc([C@H]3C[C@@H]3N)cc2)c1 (relative stereo) [Example 69, N-(4′-((trans)-2-aminocyclopropyl)biphenyl-3-yl)propane-2-sulfonamide hydrochloride]
